Test results as given in US7622275B2, “Aequorin as a growth marker in yeast” (Sanofi-Aventis Deutschland GmbH, priority 2001, dated 2009).
Read-outs that look alike come from different tables or passages of the source.

Legend:
S. cerevisiae [1] = assay: Aequorin growth marker signal upon toxic treatment (pYX132TPI-AEQ strain); assay type: cell-based, Saccharomyces cerevisiae; details: for Aequorin signal: 100 μM in SC Glucose-Trp; for Aequorin difference between toxic treatment and normal growth: 100 μM
Protocol: As a yeast strain W303 MAT a, far::hisG, sst2::URA3^FOA, fus1::HIS3 was used.
The cells are distributed and/or grown in a white 96-well plate, in a volume of 100 μl.
30 minutes before the measurement time point, 10 μl of a 5 μM coelenterazine (Molecular Probes) solution is distributed in each well (to obtain a 0.5 μM final concentration) to load the cells.
The plate is then incubated at 30° C. for the last 30 minutes.
Aequorin detection is made in a luminometer with injecting system (Luminoskan, Labsystems). For each well, immediately after injection of a 10 mM CaCl2 solution (1 M CaCl2 diluted in lysis buffer Y-PER from Pierce), the luminescent signal is integrated for 15 seconds.
To avoid the intermediate step of loading, it is possible to introduce coelenterazine in the medium at the beginning of the assay: coelenterazine is added at a concentration of 0.5 μM.
(i.e. only half of the normal signal), and the starving cells give a signal of 64 r.l.u.

S. cerevisiae [2] = system: S. cerevisiae
S. cerevisiae [3] = details: 100 μM in SC Glucose-Trp

O=C1Cc2cc(CCN3CCN(c4nsc5ccccc45)CC3)c(Cl)cc2N1 [Ziprasidone]
Aequorin signal (S. cerevisiae [1]; after 5 hours of treatment, normal growth 138, starving cells 16): 10 r.l.u.
Aequorin signal (S. cerevisiae [1]; after 24 hours treatment, normal growth 175): 50 r.l.u.
Aequorin difference between toxic treatment and normal growth (S. cerevisiae [1]; after 5 hours of treatment): 10 fold
Aequorin difference between toxic treatment and normal growth (S. cerevisiae [1]; after 24 hours treatment): 3.5 fold
toxic effects on S. cerevisiae (S. cerevisiae [2]): high toxic effects
OD630 (S. cerevisiae [2]; 100 μM in SC Glucose-Trp, after 24 hours treatment, normal growth over 1): 0.5-0.7
β-Galactosidase signal (S. cerevisiae [3]; after 5 hours of treatment, normal growth 276, starving cells 64): 116 r.l.u.
β-Galactosidase signal (S. cerevisiae [3]; after 24 hours treatment, non treated cells 2275): 1923 r.l.u.
